Assay results: US12338237B2, “Derivatives having 1,2,3,4-tetrahydronaphthalene moiety or pharmaceutically acceptable salt thereof and pharmaceutical compositions comprising the same” (YUHAN CORPORATION, priority 2019, dated 2025)
Read-outs that look alike come from different tables or passages of the source.

Experiments:
GM1 production = test: cells; assay type: cell-based
[1] = biological target: glucosylceramide synthase (GCS) (Homo sapiens (Human), UniProt Q16739); test: Evaluation of inhibitory activities against GCS (enzyme reaction with A549 cell lysate, NBD C6-ceramide, HPLC fluorescence); assay type: biochemical; conditions: GCS activity in A549 cell lysate, 37° C. for 90 minutes
Summary of the method: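 Lysate of A549 cells in 50 mM HEPES pH 7.3 incubated with test compound and NBD C6-ceramide at 37 °C for 90 min; lipids extracted with chloroform/methanol and GlcCer and ceramide peaks quantified by HPLC fluorescence. Activity from GlcCer area fraction, normalised between DMSO and ibiglustat controls.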

Chain of glucosylceramide synthase (GCS) (Q16739 whole entry, looked up): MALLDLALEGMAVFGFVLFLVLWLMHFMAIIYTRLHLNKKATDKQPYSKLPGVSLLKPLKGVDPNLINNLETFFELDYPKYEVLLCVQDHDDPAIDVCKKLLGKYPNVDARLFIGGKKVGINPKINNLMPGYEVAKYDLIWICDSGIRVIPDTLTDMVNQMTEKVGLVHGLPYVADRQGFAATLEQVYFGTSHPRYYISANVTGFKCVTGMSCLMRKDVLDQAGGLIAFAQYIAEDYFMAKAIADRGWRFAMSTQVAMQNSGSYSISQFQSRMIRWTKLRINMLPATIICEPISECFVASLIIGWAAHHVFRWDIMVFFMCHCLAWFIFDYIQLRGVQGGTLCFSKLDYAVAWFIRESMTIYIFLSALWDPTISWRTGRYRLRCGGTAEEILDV

Compound | IC50 (GM1 production; Homo sapiens, Jurkat, 72 h) [nM] | IC50 [1] [nM] | IC50 (GM1 production; read-out: IC50) [nM]
O=C(NC1c2cc(-c3ccc(F)cc3)ccc2CCC12CC2)O[C@@H]1CN2CCC1CC2 (stereo partly drawn) [Example 171, (S)-quinuclidin-3-yl (7′-(4-fluorophenyl)-3′,4′-dihydro-1′H-spiro[cyclopropane-1,2′-naphthalen]-1′-yl)carbamate] | 94.9 | 5.33 | –
COc1ccc(-c2ccc3c(c2)CCC(C)(C)C3NC(=O)O[C@@H]2CN3CCC2CC3)c(Cl)c1 (stereo partly drawn) [Example 123, (S)-quinuclidin-3-yl (6-(2-chloro-4-methoxyphenyl)-2,2-dimethyl-1,2,3,4-tetrahydronaphthalen-1-yl)carbamate] | 1.43 | 0.97 | –
O=C(NC1c2ccc(-c3cccc(F)c3)cc2CCC12CC2)O[C@@H]1CN2CCC1CC2 (stereo partly drawn) [Example 190, (S)-quinuclidin-3-yl (6′-(3-fluorophenyl)-3′,4′-dihydro-1′H-spiro[cyclopropane-1,2′-naphthalen]-1′-yl)carbamate] | 19.9 | 11.9 | –
CC(C)Oc1ccc(-c2ccc3c(c2)CCC(C)(C)C3NC(=O)O[C@@H]2CN3CCC2CC3)cc1Cl (stereo partly drawn) [Example 149, (S)-quinuclidin-3-yl (6-(3-chloro-4-isopropoxyphenyl)-2,2-dimethyl-1,2,3,4-tetrahydronaphthalen-1-yl)carbamate] | 3.9 | 3.5 | –
CC1(C)CCc2ccc(-c3ccccc3C(F)(F)F)cc2C1NC(=O)O[C@@H]1CN2CCC1CC2 (stereo partly drawn) [Example 161, (S)-quinuclidin-3-yl (2,2-dimethyl-7-(2-(trifluoromethyl)phenyl)-1,2,3,4-tetrahydronaphthalen-1-yl)carbamate] | 122 | 26.5 | –
O=C(NC1CCCc2cc(-c3cncnc3)ccc21)O[C@@H]1CN2CCC1CC2 (stereo partly drawn) [Example 53, (S)-quinuclidin-3-yl (6-(pyrimidin-5-yl)-1,2,3,4-tetrahydronaphthalen-1-yl)carbamate] | 314 | 86.4 | –
CN(C)c1cccc(-c2ccc3c(c2)CCC(C)(C)C3NC(=O)O[C@@H]2CN3CCC2CC3)c1 (stereo partly drawn) [Example 131, (S)-quinuclidin-3-yl (6-(3-(dimethylamino)phenyl)-2,2-dimethyl-1,2,3,4-tetrahydronaphthalen-1-yl)carbamate] | 2.3 | 1.49 | –
O=C(NC1CCCc2cc(-c3ccncc3F)ccc21)O[C@@H]1CN2CCC1CC2 (stereo partly drawn) [Example 49, (S)-quinuclidin-3-yl (6-(3-fluoropyridin-4-yl)-1,2,3,4-tetrahydronaphthalen-1-yl)carbamate] | 412 | 35 | –
CC1(C)CCc2cc(-c3ccccc3C(F)(F)F)ccc2C1NC(=O)O[C@@H]1CN2CCC1CC2 (stereo partly drawn) [Example 96, (S)-quinuclidin-3-yl (2,2-dimethyl-6-(2-(trifluoromethyl)phenyl)-1,2,3,4-tetrahydronaphthalen-1-yl)carbamate] | 3.29 | 1.79 | –
CC1(C)CCc2cc(-c3ccc(C(F)(F)F)cc3)ccc2C1NC(=O)O[C@@H]1CN2CCC1CC2 (stereo partly drawn) [Example 88, (S)-quinuclidin-3-yl (2,2-dimethyl-6-(4-(trifluoromethyl)phenyl)-1,2,3,4-tetrahydronaphthalen-1-yl)carbamate] | 11.3 | 3.5 | –
CCCCc1ccc(-c2ccc3c(c2)CCCC3NC(=O)O[C@@H]2CN3CCC2CC3)cc1 (stereo partly drawn) [Example 33, (S)-quinuclidin-3-yl (6-(4-butylphenyl)-1,2,3,4-tetrahydronaphthalen-1-yl)carbamate] | 499 | 3.95 | –
COc1cc(OC)cc(-c2ccc3c(c2)CCC2(CC2)C3NC(=O)O[C@@H]2CN3CCC2CC3)c1 (stereo partly drawn) [Example 214, (S)-quinuclidin-3-yl (6′-(3,5-dimethoxyphenyl)-3′,4′-dihydro-1′H-spiro[cyclopropane-1,2′-naphthalen]-1′-yl)carbamate] | 62.3 | 32.6 | –
O=C(NC1CCCc2cc(-c3ccc(OC(F)F)cc3)ccc21)O[C@@H]1CN2CCC1CC2 (stereo partly drawn) [Example 13, (S)-quinuclidin-3-yl (6-(4-(difluoromethoxy)phenyl)-1,2,3,4-tetrahydronaphthalen-1-yl)carbamate] | 143 | 23.5 | –
Cc1ccc(-c2ccc3c(c2)CCC(C)(C)C3NC(=O)O[C@@H]2CN3CCC2CC3)cc1 (stereo partly drawn) [Example 98, (S)-quinuclidin-3-yl (2,2-dimethyl-6-(p-tolyl)-1,2,3,4-tetrahydronaphthalen-1-yl)carbamate] | 2.05 | 1.7 | –
Cc1ccc(-c2ccc3c(c2)C(NC(=O)O[C@@H]2CN4CCC2CC4)C2(CC3)CC2)cc1 (stereo partly drawn) [Example 183, (S)-quinuclidin-3-yl (7′-(p-tolyl)-3′,4′-dihydro-1′H-spiro[cyclopropane-1,2′-naphthalen]-1′-yl)carbamate] | 145 | 12.9 | –
CCCOc1ccc(-c2ccc3c(c2)CCC2(CC2)C3NC(=O)O[C@@H]2CN3CCC2CC3)cc1 (stereo partly drawn) [Example 220, (S)-quinuclidin-3-yl (6′-(4-propoxyphenyl)-3′,4′-dihydro-1′H-spiro[cyclopropane-1,2′-naphthalen]-1′-yl) carbamate] | – | 0.63 | 6.7
COCCOc1ccc(-c2ccc3c(c2)C(NC(=O)O[C@@H]2CN4CCC2CC4)C(C)(C)CC3)cc1 (stereo partly drawn) [Example 165, (S)-quinuclidin-3-yl (7-(4-(2-methoxyethoxy)phenyl)-2,2-dimethyl-1,2,3,4-tetrahydronaphthalen-1-yl)carbamate] | 24.3 | 18.4 | –
O=C(NC1CCCc2cc(-c3cccc(Cl)c3)ccc21)O[C@@H]1CN2CCC1CC2 (stereo partly drawn) [Example 6, (S)-quinuclidin-3-yl (6-(3-chlorophenyl)-1,2,3,4-tetrahydronaphthalen-1-yl)carbamate] | 15.8 | 0.697 | –
CC(C)Oc1ccc(-c2ccc3c(c2)CCC(C)(C)C3NC(=O)O[C@@H]2CN3CCC2CC3)cc1F (stereo partly drawn) [Example 142, (S)-quinuclidin-3-yl (6-(3-fluoro-4-isopropoxyphenyl)-2,2-dimethyl-1,2,3,4-tetrahydronaphthalen-1-yl)carbamate] | 3.4 | 1.11 | –
COc1cc(OC)cc(-c2ccc3c(c2)CCC(C)(C)C3NC(=O)O[C@@H]2CN3CCC2CC3)c1 (stereo partly drawn) [Example 138, (S)-quinuclidin-3-yl (6-(3,5-dimethoxyphenyl)-2,2-dimethyl-1,2,3,4-tetrahydronaphthalen-1-yl)carbamate] | 3.8 | 1.19 | –
O=C(NC1c2cc(-c3ccc(OC(F)F)cc3)ccc2CCC12CC2)O[C@@H]1CN2CCC1CC2 (stereo partly drawn) [Example 184, (S)-quinuclidin-3-yl (7′-(4-(difluoromethoxy)phenyl)-3′,4′-dihydro-1′H-spiro[cyclopropane-1,2′-naphthalen]-1′-yl)carbamate] | 87 | 7.52 | –
O=C(NC1CCCc2cc(-c3cccc(C(F)(F)F)c3)ccc21)O[C@@H]1CN2CCC1CC2 (stereo partly drawn) [Example 7, (S)-quinuclidin-3-yl (6-(3-(trifluoromethyl)phenyl)-1,2,3,4-tetrahydronaphthalen-1-yl)carbamate] | 13.6 | 1.69 | –
COc1ccc(-c2ccc3c(c2)CCC(C)(C)C3NC(=O)O[C@@H]2CN3CCC2CC3)c(F)c1 (stereo partly drawn) [Example 148, (S)-quinuclidin-3-yl (6-(2-fluoro-4-methoxyphenyl)-2,2-dimethyl-1,2,3,4-tetrahydronaphthalen-1-yl)carbamate] | 4.6 | 3.21 | –
